Values of other authors, collected in patent US20180064655A1, “Hydroxynorketamine Transdermal Patch” (priority 2016, published 2018).

What was measured:
[1] = in vivo
[2] = in vivo; remark: listed apart in the source
[3] = metabolite of ketamine
[4] = following a single administration

Compound | onset of antidepressant effects [4] | persistence of antidepressant effects [4] | efficacy as an antidepressant (in vivo) | side effects limiting clinical use [1] | ketamine-related side-effects [2] | antidepressant effect [3]
CNC1(c2ccccc2Cl)CCCCC1=O (stereo not drawn) [Ketamine] | within hours | approximately one | rapid and robust efficacy as an antidepressant | abuse potential and sensory-dissociation side effects |  | 
N[C@@]1(c2ccccc2Cl)CCC[C@@H](O)C1=O [(2R,6R)-HNK, (2R,6R)-hydroxynorketamine] |  |  |  |  | lacks ketamine-related side-effects | responsible for the antidepressant effect observed with ketamine treatment
